Earlier results on 1 compound are cited in US20040006100A1, “Monotherapy for the treatment of parkinson's disease with cyclooxygenase-2 (COX 2) inhibitor(S)” (priority 2002, published 2004).

As for `N[C@@H](Cc1ccc(O)c(O)c1)C(=O)O` [levodopa], where the note is “levodopa alone administered orally”, the “fraction of levodopa that reaches the brain” value was “about 1%”. The “fraction of orally administered levodopa metabolized by decarboxylase and then unable to cross the BBB” value (oral administration, without carbidopa) was “Up to 99%”.
